Measured values from patent US20120040464A1, “METHOD FOR GENERATING HOMOPLASMIC CELLS FROM HETEROPLASMIC CELLS” (NATIONAL CENTER OF NEUROLOGY AND PSYCHIATRY, priority 2009, published 2012).

Tested on: MELAS cells (primary culture cells from the skeletal muscle and skin of MELAS patients)
Conditions: 100 μM, 30 minutes
Experimental: MELAS cells were plated to result in a cell density of 1×10^5 to 1×10^6 cells/mL in the presence of DMEM containing 10% FCS, and they were then cultured at 37° C. in a 5% CO2 atmosphere for 3 days. After completion of the culture for 3 days, when the cell density reached 5×10^5 to 6×10^6 cells/mL, the cells were diluted by a factor of 10^4 to 1.2×10^5. The resultant cells were plated and were further cultured for 15 days. After completion of the culture for 15 days, several single colonies of cells were selected, and DNA was then extracted by a common method. Using the extracted DNA sample as a template, PCR was carried out with a primer pair for amplifying a site around the nucleotide at position 3243 of the mtDNA. Thereafter, the PCR product was treated with ApaI. In the case of normal mtDNA, the sequence around the nucleotide at position 3243 is GAGCCC (wherein the underlined portion corresponds to the nucleotide at position 3243). […] Accordingly, it becomes possible to evaluate the heteroplasmic state of the cells by calculating the ratio of the 182-bp and 112-bp bands to the 294-bp bands (see Goto et al., Nature, 348, 651-653, 1990 for the details of this method).
Thereafter, the cells were washed with PBS three times, and were then cultured for 3 days. After completion of the culture for 3 days, when the cell density reached 5×10^5 to 6×10^6 cells/mL, the cells were diluted by a factor of 10^4 to 1.2×10^5. The resultant cells were plated and were further cultured for 15 days. After completion of the culture for 15 days, several single colonies of cells were selected, and DNA was then extracted by a common method. The intracellular percentage of the A3243G substitution mutation of mtDNA was examined with respect to the obtained DNA samples by the same method as described above.

OO [hydrogen peroxide]
percentage of A3243G substitution mutation in cell clones obtained after a hydrogen peroxide treatment (then 3 days and 15 days culture, single-colony clones with decreased percentage, e.g. clone 16, clone 25): ~0%
percentage of A3243G substitution mutation in clones where it became higher than without hydrogen peroxide treatment (e.g. clones 15, 27, 29, 32, 34, 35, 36, 39, untreated 30%): > 30%
effect of treatment on homoplasmic state of the cells (MELAS cells): promotes the conversion of the cells to a homoplasmic state
